Source: PubChem BioAssay (NCI)
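All cell lines were grown in 96-well plates and treated with compound for 48 hours. GI50 = concentration required for 50% inhibition of growth. TGI marks complete inhibition of growth.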

Experiments:
Test in all cases: NCI tumour cell line growth inhibition, 48 h
[1] = system: ACHN renal
[2] = system: CCRF-CEM leukemia
[3] = system: SR leukemia
[4] = system: NCI-H226 lung
[5] = system: RPMI-8226 leukemia
[6] = system: M14 melanoma
[7] = system: SK-MEL-2 melanoma
[8] = system: UACC-257 melanoma
[9] = system: HCT-116 colon
[10] = system: MCF7 breast
[11] = system: OVCAR-8 ovarian
[12] = system: HL-60(TB) leukemia
[13] = system: KM12 colon
[14] = system: U251 CNS
[15] = system: EKVX NSCLC
[16] = system: NCI-H460 lung
[17] = system: NCI-H23 lung
[18] = system: TK-10 renal
[19] = system: SF-268 CNS
[20] = system: A498 renal
[21] = system: LOX IMVI melanoma
[22] = system: OVCAR-5 ovarian
[23] = system: SF-539 CNS
[24] = system: T-47D breast
[25] = system: MOLT-4 leukemia
[26] = system: RXF 393 renal
[27] = system: SW-620 colon
[28] = system: COLO 205 colon
[29] = system: SN12C renal
[30] = system: SNB-75 CNS
[31] = system: UO-31 renal
[32] = system: SK-MEL-5 melanoma
[33] = system: MALME-3M melanoma
[34] = system: OVCAR-4 ovarian
[35] = system: K-562 leukemia
[36] = system: HOP-92 NSCLC
[37] = system: HCT-15 colon
[38] = system: A549 NSCLC
[39] = system: PC-3 prostate
[40] = system: MDA-MB-231 breast
[41] = system: HS 578T breast
[42] = system: 786-0 renal
[43] = system: IGROV1 ovarian
[44] = system: CAKI-1 renal
[45] = system: DU-145 prostate
[46] = system: NCI/ADR-RES ovarian
[47] = system: BT-549 breast
[48] = system: NCI-H522 lung
[49] = system: HOP-62 NSCLC
[50] = system: HT29 colon
[51] = system: HCC-2998 colon
[52] = system: OVCAR-3 ovarian
[53] = system: SK-OV-3 ovarian
[54] = system: UACC-62 melanoma
[55] = system: SNB-19 CNS
[56] = system: SK-MEL-28 melanoma
[57] = system: MDA-MB-435
[58] = system: SF-295 CNS

COc1cc(C2CC(c3cccc(Nc4ccnc5cc(Cl)ccc45)c3)=NN2C=O)cc(OC)c1OC (centres undefined)
GI50 [1]: 1270 nM
TGI [1]: 5320 nM
GI50 [2]: 462 nM
GI50 [3]: 318 nM
TGI [3]: 1700 nM
GI50 [4]: 1980 nM
TGI [4]: 6150 nM
GI50 [5]: 3720 nM
TGI [5]: > 23000 nM
GI50 [6]: 319 nM
TGI [6]: 2000 nM
GI50 [7]: 504 nM
TGI [7]: 3080 nM
GI50 [8]: 743 nM
TGI [8]: 5600 nM
GI50 [9]: 381 nM
TGI [9]: 1640 nM
GI50 [10]: 354 nM
TGI [10]: 10200 nM
GI50 [11]: 1640 nM
TGI [11]: > 28300 nM
GI50 [12]: 243 nM
TGI [12]: 530 nM
GI50 [13]: 502 nM
TGI [13]: > 23400 nM
GI50 [14]: 393 nM
TGI [14]: 3460 nM
GI50 [15]: 1300 nM
TGI [15]: 26100 nM
GI50 [16]: 436 nM
TGI [16]: > 40400 nM
GI50 [17]: 1400 nM
TGI [17]: 21500 nM
GI50 [18]: 1120 nM
TGI [18]: 4450 nM
GI50 [19]: 1490 nM
TGI [19]: > 34800 nM
GI50 [20]: 273 nM
TGI [20]: 1630 nM
GI50 [21]: 791 nM
TGI [21]: 7150 nM
GI50 [22]: 3500 nM
TGI [22]: 20300 nM
GI50 [23]: 1020 nM
TGI [23]: 3890 nM
GI50 [24]: 805 nM
TGI [24]: 5170 nM
GI50 [25]: 595 nM
TGI [25]: 4440 nM
GI50 [26]: 1380 nM
TGI [26]: 5290 nM
GI50 [27]: 401 nM
GI50 [28]: 635 nM
TGI [28]: 7150 nM
GI50 [29]: 1140 nM
TGI [29]: 27200 nM
GI50 [30]: 310 nM
TGI [30]: 2300 nM
GI50 [31]: 1320 nM
TGI [31]: 4690 nM
GI50 [32]: 454 nM
TGI [32]: 2340 nM
GI50 [33]: 825 nM
TGI [33]: 5140 nM
GI50 [34]: 1130 nM
TGI [34]: 6210 nM
GI50 [35]: 435 nM
TGI [35]: 12600 nM
GI50 [36]: 2750 nM
TGI [36]: 85400 nM
GI50 [37]: 626 nM
TGI [37]: > 100000 nM
GI50 [38]: 571 nM
TGI [38]: 10000 nM
GI50 [39]: 979 nM
TGI [39]: 19200 nM
GI50 [40]: 1360 nM
TGI [40]: 13700 nM
GI50 [41]: 545 nM
TGI [41]: 9360 nM
GI50 [42]: 1120 nM
TGI [42]: 5160 nM
GI50 [43]: 2120 nM
TGI [43]: > 43200 nM
GI50 [44]: 563 nM
TGI [44]: 2470 nM
GI50 [45]: 1970 nM
TGI [45]: 11800 nM
GI50 [46]: 1300 nM
TGI [46]: 6300 nM
GI50 [47]: 419 nM
TGI [47]: 1700 nM
GI50 [48]: 502 nM
TGI [48]: 6680 nM
GI50 [49]: 846 nM
TGI [49]: 8310 nM
GI50 [50]: 364 nM
TGI [50]: 1230 nM
GI50 [51]: 2310 nM
TGI [51]: 24400 nM
GI50 [52]: 408 nM
TGI [52]: 1350 nM
GI50 [53]: 1350 nM
TGI [53]: 4140 nM
GI50 [54]: 621 nM
TGI [54]: 2660 nM
GI50 [55]: 2520 nM
TGI [55]: > 100000 nM
GI50 [56]: 961 nM
TGI [56]: 4260 nM
GI50 [57]: 157 nM
TGI [57]: 466 nM
GI50 [58]: 357 nM
TGI [58]: 3610 nM
